Experimental data reported in article PMC10648349, “Aromatic Diboronic Acids as Effective KPC/AmpC Inhibitors” (Molecules, 2023).
In brackets after ≈: the same amount, converted by molar mass.

What was measured:
E. faecalis ATCC 29212 = test: direct antimicrobial activity (disc-diffusion, MIC, MBC); format: cell-based; conditions: Enterococcus faecalis, ATCC29212
Procedure: (§1) Direct antimicrobial activity against Gram-negative and Gram-positive bacterial strains, as well as against yeast, was examined as previously described by the disc-diffusion test, the MIC determination assay, the MBC (for bacteria), and the MFC (for yeasts) determination tests. All the above-mentioned tests were performed according to EUCAST [71, 72] and CLSI [73, 74, 75, 76, 77] recommendations. The following reference agents were used: nitrofurantoin (for Gram-negative rods), linezolid (for Gram-positive bacteria), and fluconazole (in the case of fungi). The new aromatic diboronic acids were dissolved in DMSO (Sigma, St. Louis, MO, USA). In the disc-diffusion test, the concentration of new agents was 0.4 mg per disc.

E. faecium ATCC 6057 = test: as above; format: cell-based; conditions: Enterococcus faecium, ATCC6057
Procedure: as §1

[1] = tested on: S. aureus ATCC 43300 MRSA; test: as above; format: cell-based; conditions: Staphylococcus aureus
Procedure: as §1

S. aureus ATCC 6538P = test: as above; format: cell-based; conditions: Staphylococcus aureus, ATCC6538P
Procedure: as §1

[2] = tested on: S. epidermidis ATCC 12228; test: as above; format: cell-based; conditions: Staphylococcus epidermidis, ATCC12228
Procedure: as §1

[3] = tested on: C. parapsilosis ATCC 22019; test: antifungal activity (disc-diffusion, MIC, MFC); format: cell-based, Candida parapsilosis; conditions: Lodderomyces parapsilosis, ATCC22019; for MIC: fluconazole by Etest
Procedure: as §1

[4] = tested on: C. guilliermondii IBA 155; test: antifungal activity (disc-diffusion, MIC, MFC); format: cell-based, Candida guilliermondii; conditions: Meyerozyma guilliermondii, IBA155; for MIC: fluconazole by Etest
Procedure: as §1

C. krusei ATCC 6258 = test: antifungal activity (disc-diffusion, MIC, MFC); format: cell-based, Candida krusei; conditions: Pichia kudriavzevii, ATCC6258; for MIC: fluconazole by Etest
Procedure: as §1

C. albicans ATCC 90028 = test: antifungal activity (disc-diffusion, MIC, MFC); format: cell-based; conditions: Candida albicans, ATCC90028; for MIC: fluconazole by Etest
Procedure: as §1

C. tropicalis ATCC 750 = test: antifungal activity (disc-diffusion, MIC, MFC); format: cell-based; conditions: Candida tropicalis, ATCC750; for MIC: fluconazole by Etest
Procedure: as §1

C. tropicalis IBA 171 = test: antifungal activity (disc-diffusion, MIC, MFC); format: cell-based; conditions: Candida tropicalis, IBA171; for MIC: fluconazole by Etest
Procedure: as §1

S. cerevisiae ATCC 9763 = test: antifungal activity (disc-diffusion, MIC, MFC); format: cell-based; conditions: Saccharomyces cerevisiae, ATCC9763; for MIC: fluconazole by Etest
Procedure: as §1

[5] = MTT-based viability assay; format: cell-based; conditions: human, MRC-5 human fibroblasts, 72 h, read-out: Viability of MRC-5 cells (% of viable cells ± SD)
Procedure: MRC-5 human fibroblasts (ECACC) were cultured in MEME, Minimum Essential Medium Eagle (Merck) supplemented with 10% fetal bovine serum (Merck), 2 mM l-glutamine, antibiotics (100 U/mL penicillin, 100 μg/mL streptomycin, Merck) and 1% non-essential amino acids (Merck). Cells were grown in 75 cm^2 cell culture flasks (Sarstedt) in a humidified atmosphere of CO2/air (5/95%) at 37 °C. MTT-based viability assay was conducted as described previously. Optical densities were measured at 570 nm using a BioTek microplate reader. All measurements were carried out in three replicates, and the results were expressed as a percent of viable cells versus control cells.

E. coli 76 KPC-2(+) = test: MIC of tested agent alone, microdilution; format: cell-based; conditions: Escherichia coli; read-out: MIC of agent alone
Procedure: (§2) To examine the ability of tested agents to inhibit various carbapenemases and AmpC-enzymes, their synergy with antibiotics against β-lactamase-producing strains was assessed by checkerboard microdilution assay, with slight modification. Checkerboards were prepared in microtiter plates, with seven two-fold dilutions of β-lactams (1–64 mg/L) in the rows and three two-fold dilutions of tested agents and PBA (4–16 mg/L) in the columns. Tested agents’ concentrations were limited to the concentrations at which the newest commercially available BLIs (vaborbactam, relebactam, and avibactam) are used in susceptibility testing. Plates were inoculated and incubated as in the MIC microdilution assay. Parallel, MICs of tested agents and PBA alone were determined by the microdilution assay. Following the incubation, antibiotic MICs in the presence of each agent’s concentration were determined. Moreover, for the first well without growth found in each checkerboard row and column along the growth/non-growth interface, the fractional inhibitory concentration index (FICI) was calculated using the formula below:FICI = [(MIC of antibiotic in combination)/(MIC of antibiotic alone)] + [(MIC of the tested agent in combination)/(MIC of tested agent alone)].

E. coli 77 CMY-2(+) = test: MIC of tested agent alone, microdilution; format: cell-based; conditions: Escherichia coli; read-out: MIC of agent alone
Procedure: as §2

[6] = tested on: K. pneumoniae 81 KPC-3(+); test: MIC of tested agent alone, microdilution; format: cell-based; conditions: Klebsiella pneumoniae; read-out: MIC of agent alone
Procedure: as §2

[7] = tested on: K. pneumoniae 83 KPC-3(+), CTX-M-3(+); test: MIC of tested agent alone, microdilution; format: cell-based; conditions: Klebsiella pneumoniae; read-out: MIC of agent alone
Procedure: as §2

[8] = tested on: K. pneumoniae ATCC BAA-1705 KPC-2(+); test: MIC of tested agent alone, microdilution; format: cell-based; conditions: Klebsiella pneumoniae, ATCCBAA1705; read-out: MIC of agent alone
Procedure: as §2

[9] = tested on: P. aeruginosa MUW 700 AmpC(+); test: MIC of tested agent alone, microdilution; format: cell-based; conditions: Pseudomonas aeruginosa; read-out: MIC of agent alone
Procedure: as §2

[10] = tested on: K. pneumoniae ATCC BAA 1705 KPC-2-positive; test: combination disc test CDT-KPC; format: cell-based; conditions: Klebsiella pneumoniae, BAA1705; agent 0.3 mg per disc; read-out: Diameter of inhibition zone, MEM-10 disc with agent
[11] = tested on: P. aeruginosa MUW 700 cAmpC-positive; test: combination disc test CDT-AmpC; format: cell-based; conditions: Pseudomonas aeruginosa
[12] = tested on: E. coli 77 CMY-2-positive; test: combination disc test CDT-AmpC; format: cell-based; conditions: Escherichia coli
[13] = tested on: K. pneumoniae ATCC 700603 ESBL-positive; test: combination disc test CDT-ESBL; format: cell-based; conditions: Klebsiella pneumoniae, ATCC700603
[14] = tested on: E. coli 77 CMY-2-positive; test: checkerboard microdilution, antibiotic plus tested agent; format: cell-based, Escherichia coli; conditions: Escherichia coli; read-out: MIC of ceftazidime alone
Procedure: as §2
(§3) For calculations, all off-scale MICs were converted to the next-highest doubling concentration. Subsequently, both the average and the lowest FICI were interpreted. The interpretation was as follows: FICI ≤ 0.5, synergy; 0.5 < FICI ≤ 4, indifference and FICI > 4, antagonism. Primarily, examined combinations consisted of meropenem (Pol-Aura, Morag, Poland) plus tested agents against carbapenemases-producing strains and ceftazidime (Pol-Aura, Morag, Poland) plus tested agents against AmpC-producing strains. For agents that reduced meropenem MIC at least 4-fold for at least two tested strains, similar assays were performed with imipenem (Pol-Aura, Morag, Poland) and ertapenem (Pol-Aura, Morag, Poland).

[15] = tested on: P. aeruginosa MUW 700 cAmpC-positive; test: as above; format: cell-based, Pseudomonas aeruginosa; conditions: Pseudomonas aeruginosa; read-out: MIC of ceftazidime alone
Procedure: as §2, §3

[16] = tested on: E. coli 76 KPC-2-positive; test: as above; format: cell-based, Escherichia coli; conditions: Escherichia coli; read-out: MIC of imipenem alone
Procedure: as §2, §3

[17] = tested on: K. pneumoniae 81 KPC-3-positive; test: as above; format: cell-based, Klebsiella pneumoniae; conditions: Klebsiella pneumoniae; read-out: MIC of imipenem alone
Procedure: as §2, §3

[18] = tested on: K. pneumoniae 83 KPC-3-positive, CTX-M-3-positive; test: as above; format: cell-based, Klebsiella pneumoniae; conditions: Klebsiella pneumoniae; read-out: MIC of imipenem alone
Procedure: as §2, §3

[19] = tested on: K. pneumoniae ATCC BAA-1705 KPC-2-positive; test: as above; format: cell-based, Klebsiella pneumoniae; conditions: Klebsiella pneumoniae, ATCCBAA1705; read-out: MIC of imipenem alone
Procedure: as §2, §3

[20] = agent 0.3 mg per disc, read-out: Diameter of inhibition zone, CAZ-30 disc with agent
[21] = ceftazidime 30 µg per disc, 6 mm disc, read-out: Diameter of inhibition zone, CAZ-30 disc without agent
[22] = 0.4 mg per disc, 9 mm disc (fluconazole 0.025 mg, 6 mm disc), - no zone, read-out: Diameter of inhibition zone

MIC (E. faecalis ATCC 29212) [µg/mL] | MIC (E. faecium ATCC 6057) [µg/mL] | MIC [1] [µg/mL] | MIC (S. aureus ATCC 6538P) [µg/mL] | MIC [2] [µg/mL] | MIC [3] [µg/mL] | MIC [4] [µg/mL] | MIC (C. krusei ATCC 6258) [µg/mL] | MIC (C. albicans ATCC 90028) [µg/mL] | MIC (C. tropicalis ATCC 750) [µg/mL] | MIC (C. tropicalis IBA 171) [µg/mL] | MIC (S. cerevisiae ATCC 9763) [µg/mL] | SMILES | viability at 72 h, 12.5 mg/L [5] [%] | viability at 72 h, 25 mg/L [5] [%] | viability at 72 h, 50 mg/L [5] [%] | also measured
> 400 | > 400 | > 400 | > 400 | > 400 | > 400 | > 400 | 400 (≈ 1680 µM) | > 400 | > 400 | > 400 | > 400 | OB(O)c1c(F)c(F)c(B(O)O)c(F)c1F [1g] | 104 ± 8.2 | 107 ± 9.2 | 98.7 ± 5.8 | –
– | – | – | – | – | – | – | – | – | – | – | – | COc1cc(B(O)O)c(OC)cc1B(O)O [1l] | 110 ± 1.6 | 114 ± 1.8 | 105 ± 7.8 | –
> 400 | 400 (≈ 2040 µM) | > 400 | > 400 | > 400 | > 400 | > 400 | > 400 | > 400 | > 400 | > 400 | > 400 | COc1c(B(O)O)cccc1B(O)O [2g] | 111 ± 9.7 | 117 ± 3.7 | 103 ± 5.1 | MIC (E. coli 76 KPC-2(+)): > 400 µg/mL; MIC (E. coli 77 CMY-2(+)): > 400 µg/mL; MIC [6]: > 400 µg/mL; MIC [7]: > 400 µg/mL; MIC [8]: > 400 µg/mL; MIC [9]: > 400 µg/mL; zone of inhibition at 300 µg/disc [10]: 6 mm; zone of inhibition at 300 µg/disc [11, 20]: 19 mm; zone of inhibition at 300 µg/disc [12, 20]: 20 mm; zone of inhibition at 300 µg/disc [13, 20]: 13 mm
200 (≈ 1160 µM) | > 400 | > 400 | > 400 | > 400 | > 400 | > 400 | 400 (≈ 2330 µM) | 400 (≈ 2330 µM) | > 400 | > 400 | > 400 | OB(O)c1ccc(B(O)O)s1 [5b] | 101 ± 7.7 | 110 ± 2.7 | 87.3 ± 13.6 | –
> 400 | 400 | 400 | 50 | 400 | > 400 | > 400 | > 400 | > 400 | > 400 | > 400 | > 400 | Cl.OB(O)c1cncc(B(O)O)c1 [6a, pyridine-3,5-diboronic acid hydrochloride] | 138 ± 3.6 | 133.5 ± 0.7 | 127 ± 2.6 | –
– | – | – | – | – | – | – | – | – | – | – | – | CC(C)(O/N=C(\C(=O)N[C@@H]1C(=O)N2C(C(=O)[O-])=C(C[n+]3ccccc3)CS[C@H]12)c1csc(N)n1)C(=O)O [CAZ, ceftazidime, reference compound] | – | – | – | zone of inhibition at 30 µg/disc [11, 21]: 11 mm; zone of inhibition at 30 µg/disc [12, 21]: 13 mm; zone of inhibition at 30 µg/disc [13, 21]: 14 mm; MIC [14]: 64 µg/mL; MIC [15]: 128 µg/mL
– | – | – | – | – | 2 (≈ 6.53 µM) | 0.75 (≈ 2.45 µM) | 64 (≈ 209 µM) | 1 (≈ 3.27 µM) | 0.38 (≈ 1.24 µM) | 0.38 (≈ 1.24 µM) | 16 (≈ 52.2 µM) | OC(Cn1cncn1)(Cn1cncn1)c1ccc(F)cc1F [Fl, fluconazole, reference compound] | – | – | – | zone of inhibition at 0.4 mg/disc [3, 22]: 32 mm; zone of inhibition at 0.4 mg/disc [4, 22]: 40 mm; zone of inhibition at 0.4 mg/disc (C. krusei ATCC 6258; [22]): 16 mm; zone of inhibition at 0.4 mg/disc (C. albicans ATCC 90028; [22]): 43 mm; zone of inhibition at 0.4 mg/disc (C. tropicalis ATCC 750; [22]): 40 mm; zone of inhibition at 0.4 mg/disc (C. tropicalis IBA 171; [22]): 39 mm; zone of inhibition at 0.4 mg/disc (S. cerevisiae ATCC 9763; [22]): 12 mm
– | – | – | – | – | – | – | – | – | – | – | – | C[C@@H](O)[C@H]1C(=O)N2C(C(=O)O)=C(SCCN=CN)C[C@H]12 [IMI, imipenem, reference compound] | – | – | – | MIC [16]: 128 µg/mL; MIC [17]: 8 µg/mL; MIC [18]: 8 µg/mL; MIC [19]: 16 µg/mL
